Measured values as given in ChEMBL document CHEMBL5608199, “Quaternized antimicrobial peptide mimics based on harmane as potent anti-MRSA agents by multi-target mechanism covering cell wall, cell membrane and intracellular targets” (Eur J Med Chem, 2024).
≈ marks a conversion by molar mass, not a printed value. Calls of active or inactive are those of the source. The calls are words filed in the database; no cut-off is given here.

Columns and labels:
Staphylococcus aureus [1] = assay: Antibacterial activity against methicillin-resistant Staphylococcus aureus CGMCC 1.12409 incubated for 18 hrs by two fold serial broth dilution method; format: functional
Staphylococcus aureus [2] = assay: Antibacterial activity against methicillin-resistant Staphylococcus aureus ATCC 33591 incubated for 18 hrs by two fold serial broth dilution method; format: functional
Staphylococcus aureus [3] = assay: Antibacterial activity against Staphylococcus aureus ATCC 29213 incubated for 18 hrs by two fold serial broth dilution method; format: functional
Staphylococcus aureus [4] = assay: Antibacterial activity against Staphylococcus aureus CMCC 26003 incubated for 18 hrs by two fold serial broth dilution method; format: functional
Staphylococcus aureus [5] = assay: Antibacterial activity against methicillin-resistant Staphylococcus aureus ATCC 43300 incubated for 18 hrs by two fold serial broth dilution method; format: functional
Escherichia coli = assay: Antibacterial activity against Escherichia coli ATCC 8739 incubated for 18 hrs by two fold serial broth dilution method; format: functional
Staphylococcus aureus [6] = assay: Antibacterial activity against methicillin-resistant Staphylococcus aureus ATCC 33591 infected in cyclophosphamide treated female KM mouse skin infection model assessed as reduction in inflammatory cell infiltration at 3.3 mg/kg administered for 4 days and measured on day 5 by H and E staining based analysis; format: functional, organism-based; conditions: time 5.0 day
Staphylococcus aureus [7] = assay: Antibacterial activity against methicillin-resistant Staphylococcus aureus ATCC 33591 infected in cyclophosphamide treated female KM mouse skin infection model assessed as reduction in number of bacterial clones in skin at 3.3 mg/kg administered for 4 days and measured on day 5; format: functional, organism-based; conditions: time 5.0 day
Staphylococcus aureus [8] = assay: Drug resistance, ratio of MIC for methicillin-resistant Staphylococcus aureus ATCC 33591 after 12 passages to MIC for methicillin-resistant Staphylococcus aureus ATCC 33591 during first exposure; format: functional
Staphylococcus aureus [9] = assay: Drug resistance, ratio of MIC for methicillin-resistant Staphylococcus aureus ATCC 33591 after 9 passages to MIC for methicillin-resistant Staphylococcus aureus ATCC 33591 during first exposure; format: functional
Staphylococcus aureus [10] = assay: Drug resistance, ratio of MIC for methicillin-resistant Staphylococcus aureus ATCC 33591 after 10 passages to MIC for methicillin-resistant Staphylococcus aureus ATCC 33591 during first exposure; format: functional

Structure (SMILES) | MIC (Staphylococcus aureus [1]) | MIC (Staphylococcus aureus [2]) | MIC (Staphylococcus aureus [3]) | MIC (Staphylococcus aureus [4]) | MIC (Staphylococcus aureus [5]) | MIC (Escherichia coli) | Activity (Staphylococcus aureus [6]) | Activity (Staphylococcus aureus [7]) | Ratio (Staphylococcus aureus [8]) | Ratio (Staphylococcus aureus [9]) | Ratio (Staphylococcus aureus [10])
CCCC[n+]1ccc2c3ccccc3n(CCN(CC)CC)c2c1C.[Br-] | 64 µg/mL | 64 µg/mL | > 128 µg/mL | 64 µg/mL | 128 µg/mL | > 128 µg/mL | – | – | – | – | –
Cc1c2c(cc[n+]1C)c1ccccc1n2CCCCCCCn1c2ccccc2c2cc[n+](C)c(C)c21.[I-].[I-] | 1 µg/mL | 0.5 µg/mL | 8 µg/mL | 0.5 µg/mL | 2 µg/mL | 16 µg/mL | – | – | – | – | –
CN[C@H](CC(C)C)C(=O)N[C@H]1C(=O)N[C@@H](CC(N)=O)C(=O)N[C@H]2C(=O)N[C@H]3C(=O)N[C@H](C(=O)N[C@H](C(=O)O)c4cc(O)cc(O)c4-c4cc3ccc4O)[C@H](O)c3ccc(c(Cl)c3)Oc3cc2cc(c3O[C@@H]2O[C@H](CO)[C@@H](O)[C@H](O)[C@H]2O[C@H]2C[C@](C)(N)[C@H](O)[C@H](C)O2)Oc2ccc(cc2Cl)[C@H]1O [VANCOMYCIN] | – | – | – | 0.25 µg/mL (≈ 0.173 µM) | – | > 128 µg/mL | Active | Active | – | – | –
CC[n+]1ccc2c3ccccc3n(CC[N+](C)(C)CC)c2c1C.[Br-].[Br-] | > 128 µg/mL | > 128 µg/mL | > 128 µg/mL | > 128 µg/mL | > 128 µg/mL | > 128 µg/mL | – | – | – | – | –
Cc1nccc2c3ccccc3n(CCN(C)C)c12 | > 128 µg/mL | > 128 µg/mL | > 128 µg/mL | > 128 µg/mL | > 128 µg/mL | 64 µg/mL (≈ 253 µM) | – | – | – | – | –
Cc1nccc2c3ccccc3n(CCCCCCCCn3c4ccccc4c4ccnc(C)c43)c12 | > 128 µg/mL | > 128 µg/mL | > 128 µg/mL | > 128 µg/mL | > 128 µg/mL | > 128 µg/mL | – | – | – | – | –
CCn1cc(C(=O)O)c(=O)c2cc(F)c(N3CCNCC3)cc21 [NORFLOXACIN] | – | – | – | – | – | – | – | – | 2 | 16 | >16
CCC[n+]1ccc2c3ccccc3n(CCN(CC)CC)c2c1C.[Br-] | > 128 µg/mL | 128 µg/mL | > 128 µg/mL | 64 µg/mL | > 128 µg/mL | > 128 µg/mL | – | – | – | – | –
CCC[n+]1ccc2c3ccccc3n(CC[N+](C)(C)CCC)c2c1C.[Br-].[Br-] | > 128 µg/mL | > 128 µg/mL | > 128 µg/mL | > 128 µg/mL | > 128 µg/mL | > 128 µg/mL | – | – | – | – | –
[2H]C([2H])([2H])[n+]1ccc2c3ccccc3n(CC[N+](CC)(CC)C([2H])([2H])[2H])c2c1C.[I-].[I-] | > 128 µg/mL | > 128 µg/mL | > 128 µg/mL | > 128 µg/mL | > 128 µg/mL | > 128 µg/mL | – | – | – | – | –
Cc1nccc2c3ccccc3n(CCCCn3c4ccccc4c4ccnc(C)c43)c12 | > 128 µg/mL | > 128 µg/mL | > 128 µg/mL | > 128 µg/mL | > 128 µg/mL | > 128 µg/mL | – | – | – | – | –
CC[N+](C)(CC)CCn1c2ccccc2c2cc[n+](C)c(C)c21.[I-].[I-] | > 128 µg/mL | > 128 µg/mL | > 128 µg/mL | > 128 µg/mL | > 128 µg/mL | > 128 µg/mL | – | – | – | – | –
CCCC[n+]1ccc2c3ccccc3n(CC[N+](C)(C)CCCC)c2c1C.[Br-].[Br-] | > 128 µg/mL | 128 µg/mL | > 128 µg/mL | 128 µg/mL | > 128 µg/mL | > 128 µg/mL | – | – | – | – | –
Cc1nccc2c3ccccc3n(CCCCCCn3c4ccccc4c4ccnc(C)c43)c12 | > 128 µg/mL | > 128 µg/mL | > 128 µg/mL | > 128 µg/mL | > 128 µg/mL | > 128 µg/mL | – | – | – | – | –
CCCCC[n+]1ccc2c3ccccc3n(CCN(CC)CC)c2c1C.[Br-] | 64 µg/mL | 32 µg/mL | 64 µg/mL | 16 µg/mL | 32 µg/mL | 128 µg/mL | – | – | – | – | –
CCCCC[n+]1ccc2c3ccccc3n(CC[N+](C)(C)CCCCC)c2c1C.[Br-].[Br-] | > 128 µg/mL | > 128 µg/mL | > 128 µg/mL | > 128 µg/mL | > 128 µg/mL | > 128 µg/mL | – | – | – | – | –
Cc1nccc2c3ccccc3n(CCCCCn3c4ccccc4c4ccnc(C)c43)c12 | > 128 µg/mL | > 128 µg/mL | > 128 µg/mL | > 128 µg/mL | > 128 µg/mL | > 128 µg/mL | – | – | – | – | –
[2H]C([2H])([2H])[n+]1ccc2c3ccccc3n(CC[N+](C)(C)C([2H])([2H])[2H])c2c1C.[I-].[I-] | > 128 µg/mL | > 128 µg/mL | > 128 µg/mL | > 128 µg/mL | > 128 µg/mL | > 128 µg/mL | – | – | – | – | –
Cc1nccc2c3ccccc3n(CCCCCCCn3c4ccccc4c4ccnc(C)c43)c12 | > 128 µg/mL | > 128 µg/mL | > 128 µg/mL | > 128 µg/mL | > 128 µg/mL | > 128 µg/mL | – | – | – | – | –
[2H]C([2H])([2H])[n+]1ccc2c([nH]c3ccccc32)c1C.[I-] | > 128 µg/mL | > 128 µg/mL | > 128 µg/mL | > 128 µg/mL | > 128 µg/mL | > 128 µg/mL | – | – | – | – | –
CCN(CC)CCn1c2ccccc2c2ccnc(C)c21 | > 128 µg/mL | 128 µg/mL (≈ 455 µM) | 128 µg/mL (≈ 455 µM) | 128 µg/mL (≈ 455 µM) | 128 µg/mL (≈ 455 µM) | 128 µg/mL (≈ 455 µM) | – | – | – | – | –
CC[n+]1ccc2c3ccccc3n(CC[N+](CC)(CC)CC)c2c1C.[Br-].[Br-] | > 128 µg/mL | > 128 µg/mL | > 128 µg/mL | > 128 µg/mL | > 128 µg/mL | > 128 µg/mL | – | – | – | – | –
Cc1c2c(cc[n+]1C)c1ccccc1n2CC[N+](C)(C)C.[I-].[I-] | > 128 µg/mL | > 128 µg/mL | > 128 µg/mL | > 128 µg/mL | > 128 µg/mL | > 128 µg/mL | – | – | – | – | –
Cc1c2[nH]c3ccccc3c2cc[n+]1C.[I-] | > 128 µg/mL | > 128 µg/mL | > 128 µg/mL | > 128 µg/mL | > 128 µg/mL | > 128 µg/mL | – | – | – | – | –
CCCC[n+]1ccc2c3ccccc3n(CCN(C)C)c2c1C.[Br-] | > 128 µg/mL | 128 µg/mL | > 128 µg/mL | 128 µg/mL | > 128 µg/mL | > 128 µg/mL | – | – | – | – | –
